These results are taken from PMC4841536, “Characterization of the Anti-HCV Activities of the New Cyclophilin Inhibitor STG-175” (PLoS ONE, 2016).

Experiment [1] concerns wild-type Con1 GT1b replicon. As to the kind of experiment: Electroporated Con1 RNA replication in Huh7.5.1 cells (RT-qPCR), wild-type. In kind it is cell-based. Conditions: Hepatitis C virus. The source says:
The GT1b subgenomic firefly luciferase reporter replicon pFK-I389/NS3–3 was provided by R. Bartenschlager. The GT1B subgenomic NS3, NS5A and NS5B mutants were created via homologous recombination using the In-Fusion HD Cloning kit (Clontech) as we described previously. […] The in vitro transcription of wild-type and mutant Con1 RNA was accomplished using the T7 MEGAscript kit (Ambion) by following the manufacturer’s instructions. In vitro-transcribed RNAs were introduced into Huh7.5.1 cells by electroporation. Trypsinized cells were washed twice and resuspended in phosphate-buffered saline (PBS) (calcium-free and magnesium-free) at 1x 10^7 cells per ml. Ten micrograms of RNA for each mutant was mixed with 0.4 mL of cells in a 4-mm cuvette, and a Bio-Rad Gene Pulser system was used to deliver a single pulse at 0.27 kV, 100 ohms, and 960 μF. Cells were then plated in 12-well dishes. RNA transfection efficiency and HCV subgenomic replication were assessed by reverse transcription-quantitative PCR (RT-qPCR) and presented as genome equivalents (GE) per microgram of total RNA as described previously. We measured by RT-qPCR the replication of wild-type, STG-175-, NS5Ai-, NS3i- and NS5Bi-resistant mutants in the presence of increasing concentrations of SGT-175, daclatasvir, telaprevir, boceprevir and sofosbuvir over a period of 8 days.
Fig 3 Replicon clearance, replication rebound and resistance analyses. […] Then drugs were removed to allow viral replication rebound to occur. At each passage, samples of cells were collected, RNA extracted and analyzed by RT-PCR for HCV RNA levels. B. Emergence of resistance: Con1 replicon Huh-7 cells were passaged 22 times in the absence or presence of STG-175 or selected DAAs. At each passage, sample of cells were collected, RNA extracted and analyzed by RT-PCR for HCV RNA levels. C. […] Data are expressed as number of HCV RNA copies per cell. […] Data are expressed as mean of relative light units and calculated EC50s are presented. […] E. Degree of resistance of D320E and Y321N Con1 variants: Left panel. Wild-type (WT), D320E and D320/Y321N NS5A Con1 RNA were electroporated into Huh7.5.1 cells and replication monitored over 8 days by quantifying the levels of intracellular HCV RNA. Right panel. Same as just above except that increasing concentrations of STG-175 were added at the time of the electroporation. […] STG-175 is taken as the substance from the printed x-axis title 'STG-175 in Log nM'.
To determine whether the D320E and Y321N substitutions truly render HCV resistant to STG-175, they were introduced into wild-type Con1 replicon as we described previously. Introduction of the substitutions was verified by sequencing. In vitro-transcribed wild-type, D320E and D320E/Y321N HCV RNAs were then electroporated into Huh7.5.1 cells and viral replication assessed by RT-qPCR and presented as GE per microgram of total RNA as we described previously. […] We then analyzed the replication of wild-type, D320E and D320E/Y321N in the presence of increasing concentrations of SGT-175 over a period of 8 days.
Fig 5 Cross-resistance analyses.
On the technique in general: Real-time PCR tracks product formation cycle by cycle.

In experiment [2] the target is T1, Human recombinant CypD (Homo sapiens, UniProt P30405).
T1 construct: purchased Atgen
T1 sequence (P30405 30-207): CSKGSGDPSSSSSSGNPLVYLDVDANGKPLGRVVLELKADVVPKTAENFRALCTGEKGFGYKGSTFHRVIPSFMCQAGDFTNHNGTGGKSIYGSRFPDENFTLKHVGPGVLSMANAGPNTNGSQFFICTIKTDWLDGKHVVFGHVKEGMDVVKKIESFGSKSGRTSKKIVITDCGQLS
Kind of experiment: α-chymotrypsin-coupled PPIase assay, CypD isomerase activity. In kind it is biochemical. The settings on record: IC50, neutralization of the isomerase activity of CypD, 5°C, 10 concentrations 0.05–1000 nM. As for the experimental part:
Inhibition of CypA and CypD isomerase activities were quantified using a α-chymotrypsin-coupled assay adapted to a 96-well plate format. Human recombinant CypA or CypD (Atgen) was dissolved to 10 nM in PPIases buffer (50 mM Hepes, 100 mM NaCl, 1 mg/ml bovine serum albumin, 1 mg/ml α-chymotrypsin; pH 8). Succinyl-AAPF-pNA peptide substrate (Sigma) was dissolved to 3.2 mM in LiCl/trifluoroethanol. Each CypI was prepared at 10 concentrations in DMSO, then diluted into CypA/D PPIase buffer to 0.05–1000 nM. Incubations were performed at 5°C. Ninety five μL of reaction mix was added to 5 μL peptide in 96-wells and OD405 nm measured at 6-sec intervals for 6 min using a Biotek Synergy H4 plate reader. Data were fitted with Graphpad Prism 6.0 to acquire first-order rate constants, which were calculated by subtracting the rate constant from uncatalyzed reactions (no CypA/D). The catalytic rate constants were plotted as a function of inhibitor concentration to obtain IC50s.
The inhibition of the isomerase activities of CypA and CypD were measured with 10 increasing concentrations of STG-175 to quantify IC50 values.
Fig 1 Anti-PPIase and immunosuppressive activities of STG-175. A. Structures of cyclophilin inhibitors. Inhibition of CypA (B) and CypD (C) isomerase activities were assessed using the α-chymotrypsin-coupled assay. Each test compound was prepared at 10 concentrations (0.05–1000 nM). All solutions were equilibrated, and reactions conducted at 5°C. Reactions were initiated by mixing 95 μL reaction mix with 5 μL of the peptide to be cleaved and measuring OD405 nm at 6-sec intervals for 6 min. […] Enzyme catalyzed rate constants were calculated by subtracting the rate constant from uncatalyzed reactions (no CypA/D), and catalytic rate constants plotted as a function of inhibitor concentration to obtain IC50s. […] D. IL-2 promoter activation upon T-cell stimulation was determined using an engineered Jurkat T-cell line, which expresses betagalactosidase. […] The Y-axis values are expressed as percentage of activity. Data expressed as EC50s are representative of two independent experiments.

Experiment [3] concerns HCV in mixed PBMCs, NTCP-Huh7 and Huh7.5.1 cells. As to the kind of experiment: Dual/triple co-infection in cell co-cultures, HCV readout. The class given is cell-based, hepatitis C virus.

SMILES strings stand for the structures. Like-named read-outs stand apart in the source and are kept apart here.

As to `CC=CCC(C)C(O)C1C(=O)NC(CC)C(=O)N(C)C(CSCCCCO)C(=O)N(C)C(CC(C)(C)O)C(=O)NC(C(C)C)C(=O)N(C)C(CC(C)C)C(=O)NC(C)C(=O)NC(C)C(=O)N(C)C(CC(C)C)C(=O)N(C)C(CC(C)C)C(=O)N(C)C(C(C)C)C(=O)N1C` (stereo not drawn) [STG-175], the EC50 (usually the concentration giving half of the maximal effect) in experiment [1] (Huh-7.5.1, 144 h, read-out: EC50, WT replicon) came to 35.7 nM; in experiment [1] (Huh-7.5.1, 192 h, read-out: EC50, WT replicon), 34.4 nM; in experiment [1] (Huh-7.5.1, 192 h, read-out: EC50 GT1b WT) it was 10.6 nM. Besides, the IC50 (as a rule, the concentration at which inhibition is half-maximal) in experiment [2] worked out at 1.3 nM. For the same molecule, the “HCV infection in co-infection” value in experiment [3] (STG-175 added together with virus) is reported as “totally blocked”. Besides, the “pre-established HCV infection in co-infection” value in experiment [3] (added 3 days post-infection and then every 3 days) is recorded as “totally eradicated”.
